The values that follow come from ChEMBL document CHEMBL1130710, “Design and synthesis of a novel class of nucleotide analogs with anti-HCMV activity” (Bioorg Med Chem Lett, 1998).

The subject of assay [1] is F2002 cell line. Put plainly: (§1) Anti-HCMV activity against F2002 cell line. It is filed as functional. To be noted: Homo sapiens, read-out: CD50 (the source's name).
Assay [2] concerns F2002 cell line. The description is as §1. It is filed as functional, cell-based, Homo sapiens.
Assay [3] concerns F2002 cell line. Briefly: Compound was tested for Anti-HCMV activity against F2002 cell line(exp 1). It is filed as functional, cell-based. To be noted: Homo sapiens.
In assay [4] the test system is F2002 cell line. Put plainly: Compound was tested for Anti-HCMV activity against F2002 cell line(exp 2). To be noted: Homo sapiens. It is filed as functional, cell-based.
[5] abbreviates: Homo sapiens, F2002, read-out: IC50.

Each structure is given as a SMILES string. Converted amounts (≈) assume the structure as drawn. “And” between values parts separate entries of the source, which are not always exact repeats. Equal values may be shown once.

A word on the IC50: it is the concentration that inhibits the measured activity by half. In the case of `Cc1cn(CC2COC(P(=O)(O)O)O2)c(=O)[nH]c1=O` (stereo unspecified), in assay [1], the CC50 was more than 100 µg/mL. Further, in assay [2] (setting [5]), the IC50 was more than 100 µg/mL. For the compound `Nc1nc(O)c2ncn(CC3COC(P(=O)(O)O)O3)c2n1` (stereo in doubt; 7a), in assay [2] (f2002), the IC50 turned out to be 20 µg/mL (≈ 63.1 µM). Turning to `N.Nc1nc(O)c2ncn(C[C@H]3CO[C@H](P(=O)(O)O)O3)c2n1`, the CC50 in assay [1] was more than 30 µg/mL. Besides, the IC50 in assay [2] (setting [5]) is more than 30 µg/mL. With `Nc1ncnc2c1ncn2CC1COC(P(=O)(O)O)O1` (stereo unspecified), the CC50 in assay [1] was more than 100 µg/mL. The IC50 in assay [2] (setting [5]) was more than 100 µg/mL. Regarding `Nc1nc2c(ncn2COC(CO)CO)c(=O)[nH]1` [GANCICLOVIR], the IC50 is 0.1 µg/mL (≈ 0.392 µM) in assay [3] and 0.2 µg/mL (≈ 0.784 µM) in assay [4]. The CC50 in assay [1] was more than 100 µg/mL. Take `N.O=c1ccn(CC2COC(P(=O)(O)O)O2)c(=O)[nH]1` (stereo unspecified): the CC50 in assay [1] is more than 100 µg/mL. In assay [2] (setting [5]), the IC50 was more than 100 µg/mL. In the case of `N.Nc1nc(O)c2ncn(C[C@@H]3CO[C@@H](P(=O)(O)O)O3)c2n1`, the CC50 in assay [1] was more than 100 µg/mL. Further, the IC50 in assay [2] (setting [5]) was more than 100 µg/mL.

Regarding `N.Nc1nc(O)c2ncn(C[C@H]3CO[C@@H](P(=O)(O)O)O3)c2n1`, the CC50 in assay [1] is more than 100 µg/mL. The IC50 in assay [2] (setting [5]) is more than 100 µg/mL. Turning to `N.Nc1nc(O)c2ncn(C[C@@H]3CO[C@H](P(=O)(O)O)O3)c2n1`, the IC50 in assay [2] (f2002) is 45 µg/mL and > 100 µg/mL.

Turning to `Nc1nc(O)c2ncn(CC3COC(P(=O)(O)O)O3)c2n1` (stereo in doubt; 7b), the CC50 in assay [1] was more than 100 µg/mL. The compound further returned an IC50 in assay [2] (f2002) of more than 100 µg/mL. In the case of `Nc1ccn(CC2COC(P(=O)(O)O)O2)c(=O)n1` (stereo unspecified), the CC50 in assay [1] is more than 100 µg/mL. The IC50 in assay [2] (setting [5]) is more than 100 µg/mL.
